Data taken from patent US10899772B2, “IRAK4 modulators” (priority 2017, dated 2021).
pKi: −log10 of the molar value.

Target: human IRAK4 (Homo sapiens (Human), UniProt Q9NWZ3)
Experiment: IRAK4 kinase inhibition, Transcreener fluorescence polarization (ADP detection)
Type: biochemical
Conditions: recombinant full-length His6-IRAK4 1.25 nM; 125 μM ATP; 125 μM peptide; 90 min; Ki computed using ATP Km 642 μM
Experimental: Compounds were assayed for inhibition of human IRAK4 and IRAK1 catalytic activity using recombinant enzyme produced from insect cells. Full-length IRAK4 protein, carrying an N-terminal His6-Tag, was obtained from Life Technologies (Carlsbad, Calif., USA). The IRAK1 construct was produced internally and was comprised of IRAK1 residues Arg194 to Ser712, preceded by an NH2-terminal His6 tag and the coding sequence for glutathione-S-transferase.
Kinase activities were assayed using the Transcreener-Fluorecescence polarization platform (BelBrook Labs, Madison, Wis., USA) that measures amounts of the reaction product, ADP.
384 well assay plates spotted with compound received 4 μl of a 2× substrate (ATP+peptide) mix in reaction buffer, followed by 4 μl of 2× enzyme diluted in reaction buffer.

Chain of human IRAK4 (Q9NWZ3 whole entry): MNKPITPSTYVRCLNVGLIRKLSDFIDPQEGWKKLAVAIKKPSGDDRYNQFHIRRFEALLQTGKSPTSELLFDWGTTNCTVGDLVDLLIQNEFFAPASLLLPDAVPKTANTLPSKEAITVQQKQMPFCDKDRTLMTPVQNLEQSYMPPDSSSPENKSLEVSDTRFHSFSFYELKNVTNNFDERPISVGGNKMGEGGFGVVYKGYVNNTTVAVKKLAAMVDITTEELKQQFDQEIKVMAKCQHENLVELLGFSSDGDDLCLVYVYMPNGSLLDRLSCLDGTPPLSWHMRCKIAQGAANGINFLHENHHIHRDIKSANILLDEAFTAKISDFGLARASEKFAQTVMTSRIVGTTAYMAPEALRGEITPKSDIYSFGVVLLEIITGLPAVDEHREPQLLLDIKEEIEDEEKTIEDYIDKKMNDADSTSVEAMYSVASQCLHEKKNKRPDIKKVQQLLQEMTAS

| SMILES | pKi |
| --- | --- |
| C[C@@H]1COCCN1c1nc(C(=O)Nc2cc3c(cc2N2CCOCC2)C(=O)N(C[C@@H](F)C(C)(C)O)C3)co1 (racemic) [Example 16, N-(2-((R)-2-fluoro-3-hydroxy-3-methylbutyl)-6-morpholino-1-oxoisoindolin-5-yl)-2-((R)-20-methyl-morpholino) oxazole-4-carboxamide] | 8.15 |
| C[C@@H](O)c1cccc(C(=O)Nc2cc3c(cc2N2CCOCC2)C(=O)N(C[C@@H](F)C(C)(C)O)C3)n1 (racemic) [Example 21, N-[6-morpholino-1-oxo-2-[rac-(2R)-2-fluoro-3-hydroxy-3-methyl-butyl]isoindolin-5-yl]-6-[rac-(1R)-1-hydroxyethyl] pyridine-2-carboxamide] | 8.77 |
| C[C@H](O)c1cccc(C(=O)Nc2cc3c(cc2N2CCOCC2)C(=O)N(C[C@@H](F)C(C)(C)O)C3)n1 (racemic) [Example 22, N-[6-morpholino-1-oxo-2-[rac-(2R)-2-fluoro-3-hydroxy-3-methyl-butyl]isoindolin-5-yl]-6-[rac-(1S)-1-hydroxyethyl] pyridine-2-carboxamide] | 8.04 |
| CO[C@H](C)c1cccc(C(=O)Nc2cc3c(cc2N2CCOCC2)C(=O)N(C[C@@H](F)C(C)(C)O)C3)n1 (racemic) [Example 23, N-[6-morpholino-1-oxo-2-[rac-(2R)-2-fluoro-3-hydroxy-3-methyl-butyl]isoindolin-5-yl]-6-[rac-(1R)-1-methoxyethyl] pyridine-2-carboxamide] | 7.92 |
| CO[C@@H](C)c1cccc(C(=O)Nc2cc3c(cc2N2CCOCC2)C(=O)N(C[C@@H](F)C(C)(C)O)C3)n1 (racemic) [Example 24, N-[6-morpholino-1-oxo-2-[rac-(2R)-2-fluoro-3-hydroxy-3-methyl-butyl]isoindolin-5-yl]-6-[rac-(1S)-1-methoxyethyl] pyridine-2-carboxamide] | 7.48 |
| CC(C)(O)[C@H](F)CN1Cc2cc(NC(=O)c3cccc(CC(F)(F)F)n3)c(N3CCOCC3)cc2C1=O (racemic) [Example 25, N-[6-morpholino-1-oxo-2-[rac-(2R)-2-fluoro-3-hydroxy-3-methyl-butyl]isoindolin-5-yl]-6-(2,2,2-trifluoroethyl)pyridine-2-carboxamide] | 8.19 |
| CC(C)(O)[C@H](F)CN1Cc2cc(NC(=O)c3cnc4cccnn34)c(N3CCOCC3)cc2C1=O [Example 1, (R)—N-(2-(2-Fluoro-3-hydroxy-3-methylbutyl)-6-morpholino-1-oxoisoindolin-5-yl)imidazo[1,2-b]pyridazine-3-carboxamide] | 8.29 |
| CC(C)(O)[C@H](F)CN1Cc2cc(NC(=O)c3ccc[nH]c3=O)c(N3CCOCC3)cc2C1=O [Example 3, (R)-N-(2-(2-Fluoro-3-hydroxy-3-methylbutyl)-6-morpholino-1-oxoisoindolin-5-yl)-2-oxo-1,2-dihydropyridine-3-carboxamide] | 8.09 |
| Cn1cccc(C(=O)Nc2cc3c(cc2N2CCOCC2)C(=O)N(C[C@@H](F)C(C)(C)O)C3)c1=O [Example 4, (R)-N-(2-(2-Fluoro-3-hydroxy-3-methylbutyl)-6-morpholino-1-oxoisoindolin-5-yl)-1-methyl-2-oxo-1,2-dihydropyridine-3-carboxamide] | 8.10 |
| CCn1cccc(C(=O)Nc2cc3c(cc2N2CCOCC2)C(=O)N(C[C@@H](F)C(C)(C)O)C3)c1=O [Example 5, (R)-1-Ethyl-N-(2-(2-fluoro-3-hydroxy-3-methylbutyl)-6-morpholino-1-oxoisoindolin-5-yl)-2-oxo-1,2-dihydropyridine-3-carboxamide] | 8.25 |
| C[C@H]1COCCN1c1nc(C(=O)Nc2cc3c(cc2N2CCOCC2)C(=O)N(C[C@@H](F)C(C)(C)O)C3)co1 [Example 10, N-[2-[(2R)-2-Fluoro-3-hydroxy-3-methyl-butyl]-6-morpholino-1-oxo-isoindolin-5-yl]-2-[(3S)-3-methylmorpholin-4-yl]oxazole-4-carboxamide] | 8.12 |
| CC(C)Oc1cccc(C(=O)Nc2cc3c(cc2N(C)C)C(=O)N(C[C@@H](F)C(C)(C)O)C3)n1 [Example 11, N-[6-(Dimethylamino)-2-[(2R)-2-fluoro-3-hydroxy-3-methyl-butyl]-1-oxo-isoindolin-5-yl]-6-isopropoxy-pyridine-2-carboxamide] | 7.68 |
| CN(C)c1cc2c(cc1NC(=O)c1cccc(OC3CCNC3)n1)CN(C[C@@H](F)C(C)(C)O)C2=O (stereo partly drawn) [Example 13, N-[6-(Dimethylamino)-2-[(2R)-2-fluoro-3-hydroxy-3-methyl-butyl]-1-oxo-isoindolin-5-yl]-6-pyrrolidin-3-yloxy-pyridine-2-carboxamide] | 8.24 |
| Cc1ccc(-c2cc3c(cc2NC(=O)c2cnc(C)o2)CN(C[C@@H](F)C(C)(C)O)C3=O)nc1 [Example 14, (R)-N-(2-(2-Fluoro-3-hydroxy-3-methylbutyl)-6-(5-methyl-pyridin-2-yl)-1-oxoisoindolin-5-yl)-2-methyloxazole-5-carboxamide] | 8.38 |
| CC(C)(O)[C@H](F)CN1Cc2cc(NC(=O)c3coc(N4CCOCC4)n3)c(N3CCOCC3)cc2C1=O [Example 15, (R)-N-(2-(2-Fluoro-3-hydroxy-3-methylbutyl)-6-morpholino-1-oxoisoindolin-5-yl)-2-morpholino-oxazole-4-carboxamide] | 8.34 |
| CC(C)(O)[C@H](F)CN1Cc2cc(NC(=O)c3cccc(C(F)(F)F)n3)c(N3CCOCC3)cc2C1=O [Example 17, (R)—N-(2-(2-Fluoro-3-hydroxy-3-methylbutyl)-6-morpholino-1-oxoisoindolin-5-yl)-6-(trifluoromethyl)picolinamide] | 8.60 |
| COc1cccc(C(=O)Nc2cc3c(cc2N(C)C)C(=O)N(C[C@@H](F)C(C)(C)O)C3)n1 [Example 19, N-[6-(Dimethyl-amino)-2-[(2R)-2-fluoro-3-hydroxy-3-methyl-butyl]-1-oxo-isoindolin-5-yl]-6-methoxy-pyridine-2-carboxamide] | 8.82 |
| Cn1ccn2ncc(C(=O)Nc3cc4c(cc3N3CCOCC3)C(=O)N(C[C@@H](F)C(C)(C)O)C4)c2c1=O [Example 26, N-[2-[(2R)-2-Fluoro-3-hydroxy-3-methyl-butyl]-6-morpholino-1-oxo-isoindolin-5-yl]-5-methyl-4-oxo-pyrazolo [1,5-a] pyrazine-3-carboxamide] | 7.33 |
| CC(C)(O)[C@H](F)CN1Cc2cc(NC(=O)c3cccc4[nH]cnc34)c(N3CCOCC3)cc2C1=O [Example 32, N-[2-[(2R)-2-Fluoro-3-hydroxy-3-methyl-butyl]-6-morpholino-1-oxo-isoindolin-5-yl]-1H-benz-imidazole-4-carboxamide] | 8.96 |
| Cn1ncc(C(=O)Nc2cc3c(cc2N2CCOCC2)C(=O)N(C[C@@H](F)C(C)(C)O)C3)c1Cl [Example 33, 5-Chloro-N-[2-[(2R)-2-fluoro-3-hydroxy-3-methyl-butyl]-6-morpholino-1-oxo-isoindolin-5-yl]-1-methyl-pyrazole-4-carboxamide] | 7.29 |
